Assay results published in ChEMBL document CHEMBL4000186, “Design and synthesis of novel 2-substituted 11-keto-boswellic acid heterocyclic derivatives as anti-prostate cancer agents with Pin1 inhibition ability” (Eur J Med Chem, 2017).

Experiments:
PC-3 = assay: Anti-proliferative activity against human PC3 cells measured after 96 hrs by MTT assay; type: functional; settings: PC-3, 96 h
LNCaP = assay: Anti-proliferative activity against human LNCAP cells measured after 96 hrs by MTT assay; type: functional
[1] = molecular target: Peptidyl-prolyl cis-trans isomerase NIMA-interacting 1 (Homo sapiens, UniProt Q13526); assay: Inhibition of Pin1 (unknown origin) using Suc-Ala-Glu-cis-Pro-Phe-4-nitroanilide as substrate preincubated for 30 mins followed by substrate addition measured for 90 secs by protease-enzyme coupled assay
Sequence of Peptidyl-prolyl cis-trans isomerase NIMA-interacting 1 (Q13526 whole entry): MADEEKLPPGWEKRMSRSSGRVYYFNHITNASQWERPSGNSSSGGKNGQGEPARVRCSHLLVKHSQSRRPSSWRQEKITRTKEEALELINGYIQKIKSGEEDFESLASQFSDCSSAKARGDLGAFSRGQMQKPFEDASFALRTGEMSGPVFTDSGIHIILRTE

| GI50 (PC-3) | GI50 (LNCaP) | IC50 [1] | Compound |
| --- | --- | --- | --- |
| 2.48 µM | 4.71 µM |  | CC1CCN(C(=O)[C@@]2(C)C(=O)C(C(F)(F)F)=C[C@]3(C)[C@H]4C(=O)C=C5[C@@H]6[C@@H](C)[C@H](C)CC[C@]6(C)CC[C@@]5(C)[C@]4(C)CC[C@@H]23)CC1 |
| 3.78 µM | 7.82 µM |  | COC(=O)[C@@]1(C)C(=O)C(C(F)(F)F)=C[C@]2(C)[C@H]3C(=O)C=C4[C@@H]5[C@@H](C)[C@H](C)CC[C@]5(C)CC[C@@]4(C)[C@]3(C)CC[C@@H]12 |
| 0.13 µM | 0.67 µM |  | C[C@H]1[C@H](C)CC[C@]2(C)CC[C@]3(C)C(=CC(=O)[C@@H]4[C@@]5(C)C=C(C#N)C(=O)[C@](C)(C(=O)N6CCC(N7CCCCC7)CC6)[C@@H]5CC[C@]43C)[C@H]12 |
| > 12.5 µM | > 12.5 µM |  | COC(=O)[C@@]1(C)C(=O)C(I)=C[C@]2(C)[C@H]3C(=O)C=C4[C@@H]5[C@@H](C)[C@H](C)CC[C@]5(C)CC[C@@]4(C)[C@]3(C)CC[C@@H]12 |
| 1.2 µM | 2.34 µM |  | COC(=O)[C@@]1(C)C(=O)C(C#N)=C[C@]2(C)[C@H]3C(=O)C=C4[C@@H]5[C@@H](C)[C@H](C)CC[C@]5(C)CC[C@@]4(C)[C@]3(C)CC[C@@H]12 |
| 3.27 µM | 3.21 µM |  | C[C@H]1[C@H](C)CC[C@]2(C)CC[C@]3(C)C(=CC(=O)[C@@H]4[C@@]5(C)C=C(C(F)(F)F)C(=O)[C@](C)(C(=O)N6CCCCC6)[C@@H]5CC[C@]43C)[C@H]12 |
| 0.45 µM | 1.66 µM |  | C[C@H]1[C@H](C)CC[C@]2(C)CC[C@]3(C)C(=CC(=O)[C@@H]4[C@@]5(C)C=C(C#N)C(=O)[C@](C)(C(=O)OCc6ccccc6)[C@@H]5CC[C@]43C)[C@H]12 |
| 5.11 µM | 3.92 µM |  | C[C@H]1[C@H](C)CC[C@]2(C)CC[C@]3(C)C(=CC(=O)[C@@H]4[C@@]5(C)C=C(C(F)(F)F)C(=O)[C@](C)(C(=O)OCc6ccccc6)[C@@H]5CC[C@]43C)[C@H]12 |
| 1.07 µM | 2.18 µM | 9.6 µM | C[C@H]1[C@H](C)CC[C@]2(C)CC[C@]3(C)C(=CC(=O)[C@@H]4[C@@]5(C)C=C(C(F)(F)F)C(=O)[C@](C)(C(=O)N6CCNCC6)[C@@H]5CC[C@]43C)[C@H]12 |
| 2.07 µM | 3.82 µM |  | CC1CCN(C(=O)[C@@]2(C)C(=O)C(C#N)=C[C@]3(C)[C@H]4C(=O)C=C5[C@@H]6[C@@H](C)[C@H](C)CC[C@]6(C)CC[C@@]5(C)[C@]4(C)CC[C@@H]23)CC1 |
| 2.64 µM | 3.29 µM |  | C[C@H]1[C@H](C)CC[C@]2(C)CC[C@]3(C)C(=CC(=O)[C@@H]4[C@@]5(C)C=C(C(F)(F)F)C(=O)[C@](C)(C(=O)N6CCCC6)[C@@H]5CC[C@]43C)[C@H]12 |
| > 12.5 µM | > 12.5 µM |  | C[C@H]1[C@H](C)CC[C@]2(C)CC[C@]3(C)C(=CC(=O)[C@@H]4[C@@]5(C)C=C(I)C(=O)[C@](C)(C(=O)OCc6ccccc6)[C@@H]5CC[C@]43C)[C@H]12 |
| 4.38 µM | 4.26 µM |  | C[C@H]1[C@H](C)CC[C@]2(C)CC[C@]3(C)C(=CC(=O)[C@@H]4[C@@]5(C)C=C(C(F)(F)F)C(=O)[C@](C)(C(=O)O)[C@@H]5CC[C@]43C)[C@H]12 |
| 31.9 µM | 27.4 µM | 53 µM | CC(=O)O[C@@H]1CC[C@@]2(C)[C@@H](CC[C@]3(C)[C@@H]2C(=O)C=C2[C@@H]4[C@@H](C)[C@H](C)CC[C@]4(C)CC[C@]23C)[C@@]1(C)C(=O)O [AKBA] |
| 4.65 µM | 3.78 µM |  | C[C@H]1[C@H](C)CC[C@]2(C)CC[C@]3(C)C(=CC(=O)[C@@H]4[C@@]5(C)C=C(I)C(=O)[C@](C)(C(=O)O)[C@@H]5CC[C@]43C)[C@H]12 |
| 1.43 µM | 1.79 µM |  | C[C@H]1[C@H](C)CC[C@]2(C)CC[C@]3(C)C(=CC(=O)[C@@H]4[C@@]5(C)C=C(C(F)(F)F)C(=O)[C@](C)(C(=O)N6CCC(N7CCCCC7)CC6)[C@@H]5CC[C@]43C)[C@H]12 |
| > 12.5 µM | > 12.5 µM |  | CC1CCN(C(=O)[C@@]2(C)C(=O)C(I)=C[C@]3(C)[C@H]4C(=O)C=C5[C@@H]6[C@@H](C)[C@H](C)CC[C@]6(C)CC[C@@]5(C)[C@]4(C)CC[C@@H]23)CC1 |
| 0.18 µM | 0.7 µM |  | C[C@H]1[C@H](C)CC[C@]2(C)CC[C@]3(C)C(=CC(=O)[C@@H]4[C@@]5(C)C=C(C#N)C(=O)[C@](C)(C(=O)O)[C@@H]5CC[C@]43C)[C@H]12 |
| > 12.5 µM | > 12.5 µM |  | C[C@H]1[C@H](C)CC[C@]2(C)CC[C@]3(C)C(=CC(=O)[C@@H]4[C@@]5(C)C=CC(=O)[C@](C)(C(=O)OCc6ccccc6)[C@@H]5CC[C@]43C)[C@H]12 |
| > 12.5 µM | > 12.5 µM |  | C[C@H]1[C@H](C)CC[C@]2(C)CC[C@]3(C)C(=CC(=O)[C@@H]4[C@@]5(C)C=C(I)C(=O)[C@](C)(C(=O)N6CCCC6)[C@@H]5CC[C@]43C)[C@H]12 |
| 3.76 µM | 5.37 µM |  | C[C@H]1[C@H](C)CC[C@]2(C)CC[C@]3(C)C(=CC(=O)[C@@H]4[C@@]5(C)C=C(C#N)C(=O)[C@](C)(C(=O)N6CCCC6)[C@@H]5CC[C@]43C)[C@H]12 |
| > 12.5 µM | > 12.5 µM |  | C[C@H]1[C@H](C)CC[C@]2(C)CC[C@]3(C)C(=CC(=O)[C@@H]4[C@@]5(C)C=C(I)C(=O)[C@](C)(C(=O)N6CCCCC6)[C@@H]5CC[C@]43C)[C@H]12 |
| 4.22 µM | 3.59 µM |  | C[C@H]1[C@H](C)CC[C@]2(C)CC[C@]3(C)C(=CC(=O)[C@@H]4[C@@]5(C)C=C(I)C(=O)[C@](C)(C(=O)N6CCC(N7CCCCC7)CC6)[C@@H]5CC[C@]43C)[C@H]12 |
| > 12.5 µM | > 12.5 µM |  | COC(=O)[C@@]1(C)C(=O)C=C[C@]2(C)[C@H]3C(=O)C=C4[C@@H]5[C@@H](C)[C@H](C)CC[C@]5(C)CC[C@@]4(C)[C@]3(C)CC[C@@H]12 |
| 2.89 µM | 1.14 µM |  | C[C@H]1[C@H](C)CC[C@]2(C)CC[C@]3(C)C(=CC(=O)[C@@H]4[C@@]5(C)C=C(C#N)C(=O)[C@](C)(C(=O)N6CCCCC6)[C@@H]5CC[C@]43C)[C@H]12 |
| 3.36 µM | 2.98 µM | 4.29 µM | C[C@H]1[C@H](C)CC[C@]2(C)CC[C@]3(C)C(=CC(=O)[C@@H]4[C@@]5(C)C=C(I)C(=O)[C@](C)(C(=O)N6CCNCC6)[C@@H]5CC[C@]43C)[C@H]12 |
